Target: T1, hTAS1R1 R277A/rTAS1R3 (Homo sapiens, UniProt Q7RTX1, R277A)
T1 construct: UniProtKB number Q7RTX1–1); expressed in transfected cells; host or cells: HEK293T/17 (ATCC CRL-11268)
T1 sequence (Q7RTX1 21-841 R277A): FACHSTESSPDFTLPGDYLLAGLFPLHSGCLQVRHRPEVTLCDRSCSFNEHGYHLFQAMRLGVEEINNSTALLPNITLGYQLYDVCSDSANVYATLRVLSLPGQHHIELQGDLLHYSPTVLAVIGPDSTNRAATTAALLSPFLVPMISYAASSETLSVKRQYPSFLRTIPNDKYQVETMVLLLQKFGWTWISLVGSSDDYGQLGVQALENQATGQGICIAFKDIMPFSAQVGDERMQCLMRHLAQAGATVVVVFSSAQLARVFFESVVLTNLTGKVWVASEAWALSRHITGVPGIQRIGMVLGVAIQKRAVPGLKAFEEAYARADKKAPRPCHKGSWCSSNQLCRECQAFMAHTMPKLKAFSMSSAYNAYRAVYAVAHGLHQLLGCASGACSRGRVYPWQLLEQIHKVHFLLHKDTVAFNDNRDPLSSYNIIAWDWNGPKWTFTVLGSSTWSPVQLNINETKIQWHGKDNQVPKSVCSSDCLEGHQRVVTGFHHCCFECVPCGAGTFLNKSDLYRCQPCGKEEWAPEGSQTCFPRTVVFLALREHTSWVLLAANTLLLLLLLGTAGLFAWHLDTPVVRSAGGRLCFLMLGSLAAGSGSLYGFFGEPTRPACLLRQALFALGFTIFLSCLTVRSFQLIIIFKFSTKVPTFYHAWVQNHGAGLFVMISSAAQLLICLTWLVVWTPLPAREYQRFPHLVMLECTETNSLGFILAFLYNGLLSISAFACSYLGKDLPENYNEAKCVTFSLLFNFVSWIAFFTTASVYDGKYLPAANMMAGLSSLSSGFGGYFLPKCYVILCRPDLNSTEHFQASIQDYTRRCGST
T1 sequence (Q923K1 21-858 partner): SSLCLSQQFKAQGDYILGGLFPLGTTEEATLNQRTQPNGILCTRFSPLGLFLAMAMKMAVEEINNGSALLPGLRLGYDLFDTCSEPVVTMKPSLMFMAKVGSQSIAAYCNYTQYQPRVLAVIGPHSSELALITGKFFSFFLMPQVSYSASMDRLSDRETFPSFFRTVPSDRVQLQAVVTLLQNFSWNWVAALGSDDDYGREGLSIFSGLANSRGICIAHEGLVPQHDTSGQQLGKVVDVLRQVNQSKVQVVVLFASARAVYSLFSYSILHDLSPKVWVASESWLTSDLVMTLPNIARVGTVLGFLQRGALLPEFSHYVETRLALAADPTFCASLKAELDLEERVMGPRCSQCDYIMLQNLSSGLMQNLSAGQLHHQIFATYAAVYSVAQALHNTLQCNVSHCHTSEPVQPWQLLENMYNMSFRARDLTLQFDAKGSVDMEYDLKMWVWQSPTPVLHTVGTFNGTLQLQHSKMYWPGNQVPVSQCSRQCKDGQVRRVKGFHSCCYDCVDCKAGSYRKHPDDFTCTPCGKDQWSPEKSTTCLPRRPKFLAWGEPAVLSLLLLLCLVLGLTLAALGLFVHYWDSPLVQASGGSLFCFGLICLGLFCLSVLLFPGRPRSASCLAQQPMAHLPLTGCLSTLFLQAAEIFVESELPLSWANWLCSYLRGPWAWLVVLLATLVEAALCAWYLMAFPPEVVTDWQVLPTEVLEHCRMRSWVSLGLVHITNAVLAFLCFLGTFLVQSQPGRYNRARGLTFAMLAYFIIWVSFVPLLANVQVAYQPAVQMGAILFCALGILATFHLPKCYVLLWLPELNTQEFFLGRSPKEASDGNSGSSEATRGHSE
Test: Calcium assay, hTAS1R1 mutant co-expressed with rTAS1R3
Format: cell-based, rat
Source text: Chimeric Gα proteins, such as Gα16Gust44, Gα16Gi3 or Gα15i2, are widely used in the functional expression of TAS1R receptors ([Backes et al., 2015]; [Suess et al., 2015]; [Toda et al., 2021], [Toda et al., 2013], [Toda et al., 2018]; [Zhang et al., 2008]). Chimeric Gα15i2 (([Toda et al., 2013]), Supplementary data) was generated by replacing the last five residues of the C-terminal tail of rat Gα15i2 (EINLL) (UniProt number G3V6N8; https://www.uniprot.org/uniprot/) with the counterpart sequence from human GNAI2 (DCGLF) (UniProt number P04899-1) and cloning into the pcDNA3.1/Hygro vector (Invitrogen, Thermo Fisher Scientific, Illkirch, France) between the HindIII and NotI restriction sites, resulting in the plasmid pcDNA3.1-Gα15i2. Chimeric Gα16Gust44 construct have already been reported ([Raliou et al., 2011]). Briefly, Gα16Gust44 was generated by replacing the C-terminal of Gα16 with the C-terminal 44 residues of gustducin. As previously described, hTAS1R1 was amplified from human fungiform papillae cDNA and cloned and inserted into pcDNA3 (Invitrogen), generating pcDNA3-TAS1R1-WT (wild-type) ([Raliou et al., 2011]). […] The cDNA coding region of rTAS1R3 was synthesized with optimized-codon usage for human expression (Genewiz) and was cloned and inserted into the mammalian pcDNA4/myc-HisA (Invitrogen) expression vector between the EcoRI and NotI restriction sites, resulting in the plasmid pcDNA4-rTAS1R3. […] The sequence integrity of all the plasmid constructs was verified via automated DNA sequencing (Genewiz).
The hTAS1R1 mutants were co-expressed with the rTAS1R3 subunit in HEK293 cells. […] As a control, the functionality of the mutated receptors was checked after stimulation with S807 (Fig. S8), which interacts with TAS1R1-TMD ([Zhang et al., 2008]).

| Compound | EC50 | effect of the added compound (1 mM) on the response to L-Glu (R277A) | response to the agonist alone, vs WT (R277A) | Max ∆F/F0 (R277A, GSH) | R1 = mutant EC50/WT EC50 (R277A, GSH) |
| --- | --- | --- | --- | --- | --- |
| N[C@@H](CCC(=O)N[C@@H](CS)C(=O)NCC(=O)O)C(=O)O [GSH, γ-L-glutamyl-L-cysteinyl-glycine] | 1840 ± 174 µM | did not affect | significantly increased the initial amplitude | 0.85 ± 0.02 | 0.7 |
| N[C@@H](CCC(=O)O)C(=O)O [L-Glu, L-glutamic acid, reference compound] | – | – | increased the amplitude | – | – |
